Data from patent US4584187A, “Imaging agent and method of use” (priority 1981, dated 1986).
Read-outs that look alike come from different tables or passages of the source.

Columns and labels:
[1] = Stability of radiolabeled compound on storage in solution; assay type: physicochemical; details: 4° C., dark
Text: The radiochemical purity was greater than 98% as determined by thin-layer chromotography on silica gel G using two solvent systems: (1) 1/l ethyl acetate: ethanol (Rf=0.0; Rf of free radioiodide=0.60); (2) 3/l n-propanol: 10% ammonium hydroxide (Rf=0.15, Rf of free radioiodide=0.75, Rf of meta-iodobenzylamine=0.35). […] Final […].

adrenal medulla = assay: MIBG adrenal imaging in MEN-2 patients; assay type: in vivo, human; details: for MIBG Adrenal Imaging: 1 and 2 days
Method: To display adrenal medullary abnormalities, 500 μCi of ^131 I-mIBG was injected into 6 patients from 5 families with MEN-2 and scintiscans were performed 1 and 2 days later. Percent administered dose uptake was calculated using a semioperator independent algorithm. Adrenal medullary function was assessed by plasma norepinephrine (N) and epinephrine (E) and urinary N, E, metanephrine (M), and normetanephrine (NM) levels.

Pheochromocytomas (PHEO) = assay: Scintigraphic localization of pheochromocytomas with I-131-mIBG in patients and controls; assay type: in vivo, human
Method: Pheochromocytomas (PHEO) were localized with I-131-meta-iodobenzylguanidine(^131 I-mIBG). Five hypertensive patients without PHEO served as controls. I-131-mIBG, 0.5 mCi, was given i.v. Images of areas of interest were made at 24, 48 and 72 hours post-injection. Adrenal (tumor) uptake was estimated with a semioperator-independent computer algorithm. All patients with sporadic PHEO gave clinical and hormonal evidence of their disease.

[2] = Biological tissue distribution of I-125 iodobenzylguanidine in dogs; assay type: in vivo, Female Mongrel Dogs
Method: (§1) Biological tissue distribution studies were performed on rats, dogs and monkeys injected intravenously with 25 μCi and 100 μCi respectively of I-125 iodobenzylguanidine in an average volume of 0.3 ml, 2 ml, and 1 ml respectively. Representative samples of tissues were counted in an autogamma counter with corrections made for radioactive decay, background, and counter efficiency. To normalize for differences in animal weights, tissue concentrations are expressed as percent kilogram dose per gram.

[3] = design: species or system Rhesus Monkeys; details: rhesus monkey, in vivo, iv, 180 min
Method: as §1

[4] = design: species or system rats; details: rat, in vivo, iv, 30 min
Method: as §1

[5] = system: adrenergic neurons of the heart and chromaffin granules of the adrenal medulla; assay: Localization in adrenergic tissues; assay type: in vivo

Structure (SMILES): N=C(N)NCc1cccc([123I])c1 [I^123 -meta-iodobenzylguanidine]
- radio-composition (decomposition) on storage ([1]; up to 4 days as sulfate salt in water or physiological buffered saline, I-123): minimal detectable radio-composition

Structure (SMILES): N=C(N)NCc1cccc([131I])c1 [^131 I-mIBG, I^131 -meta-iodobenzylguanidine]
- MIBG Adrenal Imaging (adrenal medulla; patient 1 (apparently unaffected, plasma/urine normal), 500 μCi): Nonvisualized
- MIBG Adrenal Imaging (adrenal medulla; patient 2 (MEN 2a, plasma/urine normal), 500 μCi): Nonvisualized
- MIBG Adrenal Imaging (adrenal medulla; patient 3 (MEN 2a, urine M raised), 500 μCi): Faint bilateral
- MIBG Adrenal Imaging (adrenal medulla; patient 4 (MEN 2b, plasma N, urine NM raised), 500 μCi): Distinct bilateral
- MIBG Adrenal Imaging (adrenal medulla; patient 5 (MEN 2a, plasma N,E, urine E,NM,M raised), 500 μCi): Distinct bilateral
- MIBG Adrenal Imaging (adrenal medulla; patient 6 (MEN 2a, plasma N,E, urine E,NM,M raised), 500 μCi): Asymmetric bilateral
- scintigraphy of right adrenal gland (adrenal medulla; patient 6, confirmed at surgery, only irregular area on CT): two distinct tumors
- adrenal imaging, patients 1 and 2 (adrenal medulla; patients 1 and 2, pattern recognized by control studies as normal): Neither patient 1 nor patient 2, who was affected with medullary thyroid carcinoma, showed adrenal imaging
- percent uptake by the adrenal glands versus hormone values (adrenal medulla; remaining 4 patients (3-6), 500 μCi): increased proportionally to the urine and plasma hormone values
- activity seen in malignant (metastatic) PHEO (Pheochromocytomas (PHEO); another patient with malignant (metastatic) PHEO): only ill-defined activity was seen
- scintigrams in PHEO patients (Pheochromocytomas (PHEO); each of eight PHEO patients, 0.5 mCi i.v., 24, 48 and 72 hours): located abnormal collections of activity
- patients in whom abnormalities correspond to PHEOs subsequently excised (Pheochromocytomas (PHEO); eight PHEO patients, 0.5 mCi i.v.): 7 of the 8
- scintigraphic image of adrenal glands in control subjects (Pheochromocytomas (PHEO); five hypertensive controls without PHEO, 0.5 mCi i.v., 24, 48 and 72 hours): little or no scintigraphic image of their adrenal glands
- activity seen in malignant (metastatic) PHEO (Pheochromocytomas (PHEO); one patient with malignant (metastatic) PHEO): multiple areas of activity were seen in the skull, chest and abdomen
- decomposition on storage ([1]; up to 4 days as sulfate salt in water or physiological saline, I-131): no detectable decomposition

Structure (SMILES): N=C(N)NCc1cccc([125I])c1 [I-125 iodobenzylguanidine]
- Tissue concentration, Liver (Mean ± S.E.M.) ([2]; dog, in vivo, iv, 30 min): 0.34 ± .03 % Kg Dose/g
- Tissue concentration, Lung (Mean ± S.E.M.) ([2]; dog, in vivo, iv, 30 min): 0.22 ± .06 % Kg Dose/g
- Tissue concentration, Muscle (Mean ± S.E.M.) ([2]; dog, in vivo, iv, 30 min): 0.02 ± .00 % Kg Dose/g
- Tissue concentration, Thyroid (Mean ± S.E.M.) ([2]; dog, in vivo, iv, 30 min): 0.56 ± .07 % Kg Dose/g
- Tissue concentration, Adrenal Cortex (Mean ± S.E.M.) ([2]; dog, in vivo, iv, 120 min): 0.39 ± .05 % Kg Dose/g
- Tissue concentration, Adrenal Medulla (Mean ± S.E.M.) ([2]; dog, in vivo, iv, 120 min): 6.29 ± .25 % Kg Dose/g
- Tissue concentration, Blood (Mean ± S.E.M.) ([2]; dog, in vivo, iv, 120 min): 0.02 ± .00 % Kg Dose/g
- Tissue concentration, Heart (Mean ± S.E.M.) ([2]; dog, in vivo, iv, 120 min): 0.50 ± .10 % Kg Dose/g
- Tissue concentration, Liver (Mean ± S.E.M.) ([2]; dog, in vivo, iv, 120 min): .017 ± .05 % Kg Dose/g
- Tissue concentration, Lung (Mean ± S.E.M.) ([2]; dog, in vivo, iv, 120 min): 0.46 ± .13 % Kg Dose/g
- Tissue concentration, Muscle (Mean ± S.E.M.) ([2]; dog, in vivo, iv, 120 min): 0.04 ± .00 % Kg Dose/g
- Tissue concentration, Adrenal Cortex (Mean ± S.E.M.) ([2]; dog, in vivo, iv, 2880 min): 0.10 ± .01 % Kg Dose/g
- Tissue concentration, Adrenal Medulla (Mean ± S.E.M.) ([2]; dog, in vivo, iv, 2880 min): 13.6 ± 1.1 % Kg Dose/g
- Tissue concentration, Blood (Mean ± S.E.M.) ([2]; dog, in vivo, iv, 2880 min): 0.01 ± .00 % Kg Dose/g
- Tissue concentration, Heart (Mean ± S.E.M.) ([2]; dog, in vivo, iv, 2880 min): 0.06 ± .01 % Kg Dose/g
- Tissue concentration, Liver (Mean ± S.E.M.) ([2]; dog, in vivo, iv, 2880 min): 0.02 ± .00 % Kg Dose/g
- Tissue concentration, Lung (Mean ± S.E.M.) ([2]; dog, in vivo, iv, 2880 min): 0.03 ± .00 % Kg Dose/g
- Tissue concentration, Muscle (Mean ± S.E.M.) ([2]; dog, in vivo, iv, 2880 min): 0.02 ± .00 % Kg Dose/g
- Tissue concentration, Adrenal Cortex (Mean ± S.E.M.) ([2]; dogs (2), i.v., 30 min, adrenal cortex): 0.61 ± .02 % Kg Dose/g
- Tissue concentration, Adrenal Medulla (Mean ± S.E.M.) ([2]; dogs (2), i.v., 30 min, adrenal medulla): 5.35 ± .71 % Kg Dose/g
- Tissue concentration, Blood (Mean ± S.E.M.) ([2]; dogs (2), i.v., 30 min, blood): 0.02 ± .00 % Kg Dose/g
- Tissue concentration, Heart (Mean ± S.E.M.) ([2]; dogs (2), i.v., 30 min, heart): 0.47 ± .02 % Kg Dose/g
- Tissue concentration, Thyroid (Mean ± S.E.M.) ([2]; dogs (2), i.v., 2 hours, thyroid): 0.56 ± .05 % Kg Dose/g
- Tissue concentration, Thyroid (Mean ± S.E.M.) ([2]; dogs (2), i.v., 48 hours, thyroid): 1.27 ± .47 % Kg Dose/g
- Tissue concentration, Adrenal Cortex (Mean ± S.E.M.) [3]: 0.42 ± .12 % Kg Dose/g
- Tissue concentration, Adrenal Medullae (Mean ± S.E.M.) [3]: 2.69 ± .28 % Kg Dose/g
- Tissue concentration, Blood (Mean ± S.E.M.) [3]: 0.02 ± .00 % Kg Dose/g
- Tissue concentration, Heart (Mean ± S.E.M.) [3]: 0.64 ± .03 % Kg Dose/g
- Tissue concentration, Liver (Mean ± S.E.M.) [3]: 0.76 ± .03 % Kg Dose/g
- Tissue concentration, Lung (Mean ± S.E.M.) [3]: 0.17 ± .00 % Kg Dose/g
- Tissue concentration, Muscle (Mean ± S.E.M.) [3]: 0.02 ± .00 % Kg Dose/g
- Tissue concentration, Blood (Mean ± S.E.M.) [4]: .03 ± .00 % Kg Dose/g
- Tissue concentration, Heart (Mean ± S.E.M.) [4]: 1.09 ± .06 % Kg Dose/g
- Tissue concentration, Liver (Mean ± S.E.M.) [4]: .36 ± .02 % Kg Dose/g
- Tissue concentration, Lung (Mean ± S.E.M.) [4]: .70 ± .06 % Kg Dose/g
- Tissue concentration, Muscle (Mean ± S.E.M.) [4]: .25 ± .02 % Kg Dose/g
- Tissue concentration, Thyroid (Mean ± S.E.M.) [4]: .76 ± .04 % Kg Dose/g

Structure (SMILES): N=C(N)NCc1cccc(I)c1 [meta-iodobenzylguanidine, Meta-iodobenzylguanidine]
- accumulation in adrenergic tissues ([5]; compared with norepinephrine and guanethidine): accumulated in adrenergic tissues in a manner similar to norepinephrine and guanethidine
- localization ([5]; heart and adrenal medulla): localizes in the adrenergic neurons of the heart and chromaffin granules of the adrenal medulla
